Data taken from patent publication US6935334B2, “Enhancing therapeutic effectiveness of nitric oxide inhalation” (The General Hospital Corporation, priority 2000, dated 2005).

What was measured:
[1] = test system: hypoxic pulmonary vasoconstriction (HPV) in mice; assay: Redistribution of pulmonary blood flow (QLPA/QPA) after left mainstem bronchus occlusion (LMBO), murine HPV model; format: in vivo, mouse
Experimental: Group 3: endotoxin-treated+L-NIL. SV129/B6F1 wild-type mice (n=5) were injected intraperitoneally with 10 mg/kg E. coli 011B4 endotoxin dissolved in 0.2 mL saline. Three hours after the endotoxin challenge, mice were treated with L-NIL 5 mg/kg intraperitoneally. Studies were performed 22 hours after the endotoxin challenge. In additional SV129/B6F1 mice with (n=5) and without (n=4) a prior challenge of endotoxin (22 hours earlier), the acute response to an intravenous bolus of 5 mg/kg L-NIL administered during LMBO, was studied.
Group 4: prolonged exposure to 4 or 40 ppm NO. Saline-treated SV129 wild-type mice (n=5) and NOS2-deficient mice (n=5) breathed 40 ppm NO in air for 22 hours and were studied 1 hour after discontinuation of NO inhalation. SV129 wild-type mice (n=5) and NOS2-deficient mice (n=5) breathed 40 ppm NO in air for 22 hours after challenge with 10 mg/kg endotoxin intraperitoneally and were studied 1 hour after discontinuation of NO inhalation. Additional NOS2-deficient mice (n=4) breathed 4 ppm of NO in air for 22 hours after challenge with 10 mg/kg endotoxin intraperitoneally and were studied 1 hour after discontinuation of NO inhalation.
Experimental preparation. Mice were anesthetized by intraperitoneal injection of ketamine (0.1 mg/g body weight [bw]). Tracheostomy and arterial catheterization were performed as described previously (Steudel et al., 1997, Circ. Res. 81:34-41). A custom-made endotracheal tube (22G Angiocath; Becton Dickinson Healthcare Systems, Sandy, Utah, USA), combined with a 2 French Fogarty arterial embolization catheter (Baxter Healthcare Corp., Irvine, Calif., USA) was inserted into the trachea, with the balloon tip of the Fogarty catheter initially remaining in the trachea. Volume-controlled ventilation was initiated at a respiratory rate of 110-120 breaths per minute, at FiO2 1.0, a peak inspiratory pressure of 13 cm H2O, and a positive end-expiratory pressure level of 2-3 cm H2O. A right parasternal thoracotomy was performed, and a small-vessel ultrasonic flow probe (1RB; Transonic Instruments, Ithaca, N.Y.) was placed around the right pulmonary artery and fixed in position using a micromanipulator (X-tra Hand; TechniTool, Plymouth, Pa.). A 4-0 silk suture was positioned around the left main pulmonary artery to allow transient vascular occlusion. A pulmonary artery catheter (PE10) was inserted into the main pulmonary artery by direct puncture. In other experiments, a lower thoracic aortic flow probe was placed as reported previously (Steudel et al., supra).
Blood flow and pressure measurements. Mean systemic arterial pressure (PSA), mean pulmonary artery pressure (PPA), and in some studies PLA, were continuously monitored using biomedical amplifiers (Hewlett Packard 8805C, Palo Alto, Calif.; Siemens Sirecust 960, Danvers, Mass.). Mean lower thoracic aortic flow (QLTAF) and right pulmonary artery flow (QRPA) were measured with small vessel flow probes connected to a flowmeter (T106; Transonic Instruments). In some experiments, left ventricular end-diastolic pressure was measured with a 1.4 Fr. Millar catheter. The catheter was advanced through the right carotid artery into the left ventricle. […] All monitoring equipment was calibrated before each experiment.
Differential measurement of left and right pulmonary artery flow. To assess the contribution of QRPA and left pulmonary artery flow (QLPA) to total pulmonary artery flow (QPA), transient occlusion (90 seconds) of the left pulmonary artery (QLPA) was performed. QRPA during acute left pulmonary artery occlusion was considered to be QPA (i.e., cardiac output) and correlated closely (r2=0.88; y=0.95x+0.38; n=9) with QLTAF. QLPA was calculated as the difference between QRPA during left pulmonary artery occlusion (QPA) and QRPA with a patent left pulmonary artery (QLPA=QPA−QRPA). Absolute values of respective flows were recorded, and the fractional distribution of flow to the right and left lungs (QRPA/QPA and QLPA/QPA) was calculated. […]

NOS2 = assay: Pulmonary cGMP levels after endotoxin challenge; format: in vivo, mouse; settings: wild-type mice 7 hours after endotoxin challenge; L-NIL 5 mg/kg intraperitoneally; data not shown
[2] = saline-treated wild-type mice, L-NIL 5 mg/kg intravenously after LMBO

CC(=N)NCCCC[C@H](N)C(=O)O [L-NIL]
reduction of QLPA/QPA after LMBO ([1]; endotoxin-challenged (10 mg/kg i.p.) wild-type mice treated with L-NIL 5 mg/kg intraperitoneally 3 hours later, studied 22 hours after endotoxin): 53±10% | all other hemodynamic parameters after L-NIL injection [1, 2]: did not change | reduction of QLPA/QPA during LMBO after acute L-NIL [1, 2]: 56±3% | reduction of QLPA/QPA during LMBO after acute L-NIL ([1]; wild-type mice treated with endotoxin 22 hours earlier, L-NIL 5 mg/kg intravenously after LMBO): 24±18% | increase in pulmonary cGMP levels (NOS2): sufficient to prevent the increase in pulmonary cGMP levels
